Where no end group is shown, it is not given here.
Molecular target: HLA-DQ8 (Homo sapiens, UniProt P01909+P01920, A209T/A45G/C70Q/D89A/DUP78-78/E183D/E77G/F237L/G63E/H199R/I129T/K197E/L178F/L74F/L98V/Q57E/Q76R/S185I/S97I/T217I/T49S/V73L/Y58L)
Experiment: biochemical
Assay type: binding

Sequence of HLA-DQ8 (P01920 33-261 A45G/Y58L/E77G/D89A/H199R/T217I limits assumed, other chains not shown): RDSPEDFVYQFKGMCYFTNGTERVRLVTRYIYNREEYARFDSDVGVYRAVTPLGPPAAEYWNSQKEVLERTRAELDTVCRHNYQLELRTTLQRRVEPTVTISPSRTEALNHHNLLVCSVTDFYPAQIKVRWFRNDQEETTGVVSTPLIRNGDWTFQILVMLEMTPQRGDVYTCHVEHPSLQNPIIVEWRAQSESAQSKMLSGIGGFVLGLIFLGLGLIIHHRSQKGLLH

ADVEVYRAVTPLGPPD [DQB45–57]
IC50: 100 nM
